{"source": "patent US20230405014A1", "about": "“USE OF AN IRAK4 MODULATOR FOR GENE THERAPY” (Genzyme Corporation, priority 2022, published 2023)", "key": {"[1]": {"tested_on": "transgene LacZ specific CD8 T cells", "test": "In vivo mouse model of AAV-induced immune response, LacZ tetramer staining", "parameters": "species or system C57BL/6J mice", "settings": "KT-474 in chow 100 mg/kg from 15 days prior to intramuscular AAV", "experimental": "In vivo mice experiments: C57BL/6J mice were purchased from Jackson Laboratories. 6-8-week male mice were divided into 3 groups—PBS group, AAV group and AAV+KT474 group all groups with 6 mice each. […] PBS group mice were injected intramuscularly with 100 ul PBS, AAV group was injected intramuscularly with 1e11 vg per quadricep muscle of both legs, 100 ul volume. AAV capsid used in the study had LacZ transgene. All animal experiments were conducted in accordance with the Institutional Animal Care and Use Committees at Sanofi, Framingham. Submandibular bleeds were performed weekly, and necropsy was performed three weeks post AAV injection.\nThe PBS and AAV only groups were fed regular chow and were bled on day 14 and necorpsied on day 21.\nPBMC isolation 120 ul blood was collected in K2EDTA coated tubes. The blood was mixed with DBPS at 1:1 ration and pipetted into a separate tube containing Ficoll (GE17-5442-02) to ensure no mixing of the blood and Ficoll phases. The mixture was centrifuged at 2000 RPM for 25 minutes at room temperature (9 acceleration and no braking). […] PBMCs were washed three times with phosphate buffered saline (PBS) containing 1% fetal bovine serum (FBS) or fetal calf serum (FCS) and counted. The PBMC cells thus obtained were stained with different antibodies to quantify percentage of different immune cell subsets in peripheral blood. […]"}, "[2]": {"tested_on": "human monocytic dendritic cells", "test": "Cytokine release from human monocytic dendritic cells co-treated with AAV and KT-474 (Luminex)", "type": "cell-based", "settings": "co-treatment with AAV at MOI 1e5, 24 hours, all KT-474 doses", "experimental": "Preparation of Peripheral Blood Mononuclear Cells. Blood from leukopaks (Stem cell technologies) from different donors was decanted into 50 mL tubes and Dulbecco's phosphate buffered saline (DPBS) was added at a 1:1 ratio. The blood plus DBPS mix was gently pipetted into a separate 50 mL tube containing 15 mL Ficoll (GE17-5442-02) to ensure no mixing of the blood and Ficoll phases. The mixture was centrifuged at 2000 RPM for 25 minutes at room temperature (9 acceleration and no braking). The buffy coat containing the peripheral blood mononuclear cells (PBMCs) was collected, transferred to a new tube, and centrifuged for five minutes at 400 RCF. PBMCs were washed three times with phosphate buffered saline (PBS) containing 1% fetal bovine serum (FBS) or fetal calf serum (FCS) and counted.\nIsolation of Monocytes. CD14+ monocytes were isolated from the PBMCs using CD14 MicroBeads following the manufacturer's protocol (Miltenyi Biotech, Germany, order no. 130-050-201, protocol available online world wide web miltenyibiotec.com/upload/assets/IM0001260.PDF). Briefly, PBMCs were incubated with […] CD14 MicroBeads per 10^7 total cells for 15 minutes at 2-8° C. PBMCs were applied onto a magnetic column (Miltenyi; world wide web miltenyibiotec.com/US-en/products/ls-columns.html #130-042-401) and unlabeled cells were allowed to pass through. After washing the column three times, the column was removed from the magnetic separator, (Miltneyi; world wide web miltenyibiotec.com/US-en/products/quadromacs-separator-and-starting-kits.html #130-091-051) placed on a collection tube, and magnetically labeled CD14+ monocytes were flushed out by pushing a plunger into the column.\nDifferentiation of Monocytes. […]\nrAAV Production and Titration. rAAV vectors were produced using a standard triple transfection method (Sena-Esteves and Gao, Cold Spring Harb Protoc; doi:10.1101/pdb.top095513, 2020). All serotypes evaluated encode the same GFP transgene. Viruses were purified by cesium chloride ultracentrifugation and titrated using both silver staining and quantitative polymerase chain reaction (qPCR). […]"}, "[3]": {"tested_on": "primary human monocytic dendritic cells", "test": "Cell viability of dendritic cells (Live/Dead staining, flow cytometry)", "type": "cell-based", "settings": "AAV at MOI 1e5 and KT-474 co-treated, 24 hours, at doses tested, three donors (FIG. 3)"}}, "data": [{"smiles": "Cn1c(=O)n(C2CCC(=O)NC2=O)c2cccc(C#CCOC3CCN(C[C@H]4CC[C@H](n5cc(NC(=O)c6cnn7ccc(N8C[C@H]9C[C@@H]8CO9)nc67)c(C(F)F)n5)CC4)CC3)c21", "note": "(stereo partly drawn) [KT-474]", "values": [{"measurement": "LacZ tetramer positive (transgene LacZ specific) CD8 T cells in PBMCs", "setting": "[1]; peripheral blood, 14 days post AAV injection (FIG. 6A)", "result": "reduced significantly"}, {"measurement": "LacZ tetramer positive (transgene LacZ specific) CD8 T cells in spleen", "setting": "[1]; splenocytes, 21 days post AAV injection (FIG. 6B)", "result": "reduced significantly"}, {"measurement": "AAV-induced secretion of IL1b", "setting": "[2]; three donors (FIG. 2A)", "result": "blocked"}, {"measurement": "AAV-induced secretion of IL6", "setting": "[2]; three donors (FIG. 2B)", "result": "blocked"}, {"measurement": "AAV-induced secretion of TNFa", "setting": "[2]; three donors (FIG. 2C)", "result": "blocked"}, {"measurement": "cellular toxicity (cell viability)", "setting": "[3]", "result": "no cellular toxicity"}]}]}
